Assay results published in a melting point compilation (Tetko et al.; mined from patent text by program, amines drawn as free bases though some values may be those of a salt).

SMILES | melting point [°C]
O=C(CCc1ccccc1)Nc1cc(-c2nnc(CCc3cccc(F)c3)o2)ccn1 | 171 to 172
CCOC(=O)C(C(=O)C(C)C)C1c2nccnc2C(=O)N1c1ccc2ccc(Cl)nc2n1 (stereo not given) | 214
CCOC(=O)C(CC)=C(C)NC(=O)Nc1cc(OC(C)C)c(Cl)cc1F | 112 to 114
CC(=O)c1cc(OCC2CO2)ccc1OCc1ccccc1 (stereo not given) | 45 to 48
CCCc1nc(C=O)cc(N)c1F | 113 to 114
CCCCc1nc2c(n1Cc1ccc(C(=O)OC)cc1)C[C@@H](C(=O)O)N(C(=O)C(c1ccccc1)c1ccccc1)C2 | 176 to 180
COc1ccc2c(c1)cc(-c1ccccc1)n2-c1ccc(O)cc1 | 200 to 201
CC(CC(=O)NC(=O)OC(C)(C)C)Nc1ccccc1 (stereo not given) | 117 to 118
CNc1ccnc2c1c(=O)n(C)c(=O)n2C | 179 to 180
CCOC(=O)CCCCC(=O)c1c(C)n(C(=O)OC)c(=O)n1C(=O)OC | 74 to 76
COc1ccc2c3c(c(Cl)nc2c1)C(=O)c1ccccc1-3 | 261 to 266
CC(=O)OCCCNc1nnc(NCCCOC(C)=O)c2c1C(=O)c1ccccc1C2=O | 142 to 145
CC(C)n1nc(-c2sc(NC(=O)c3ccc(CNCCCN(C)C)cc3)nc2-c2ccccc2)ccc1=O | 108 to 110
N=C1CC(=O)Oc2cc(OCC(O)COc3ccccc3)ccc21 (stereo not given) | 213 to 214
O=C1C(Cc2ccncc2)c2ccccc2N1N1CCCCC1 (stereo not given) | 83 to 86
COC(=O)CC/C(C)=C/Cc1c(OC)c(C)c2c(c1OS(=O)(=O)C(F)(F)F)C(=O)OC2 | 53 to 55
COc1cc(Cl)c2c(=O)c(Br)coc2c1 | 176 to 177
CSc1cc2c(cc1C(F)(F)F)N(C(=O)Nc1cccc(C(=O)O)c1)CC2 | > 200
CCCCc1nc2c(N)nc3ccccc3c2n1CCCCS(C)=O (stereo not given) | 126 to 128
Cc1cc(-c2cccc3c2C(=O)OC(C)(C)O3)on1 | 74
Cn1ncc(/C=C/C(=O)Nc2ccc3[nH]c(=O)oc3c2)c1-c1ccc(F)cc1 | > 300
O=C1CC(c2ccccc2O)=Nc2ccc(N3CCCC3)cc21 | 304 to 306
COc1ccc(CCc2ccc(NC(=O)C(=O)c3sc4ccccc4c3O)cc2)cc1OC | 203
CNc1ccc(-c2c[nH]cn2)cc1 | 75 to 76
O=C(O)c1cc(OCCCOc2ccccc2-c2ccccc2)cc(OCCCOc2ccccc2-c2ccccc2)c1 | 110 to 113

SMILES | melting point [°C]
CCc1cc2c3c(cc(C)c2[nH]c1=O)CC(C)(CN=[N+]=[N-])O3 (stereo not given) | 211 to 212
CC(=O)SCC(=Cc1ccc2c(c1)OCO2)C(=O)NCCC(=O)OCc1ccccc1 | 76
CC(C)NCC(O)C(Oc1ccccc1)c1ccccc1 (stereo not given) | 95 to 96
O=C(CCCCN1CCCCC1)NNC(=O)N1Cc2ccccc2Oc2ccc(Cl)cc21 | 126 to 128
Cc1c(C)c2c(c(C)c1NCc1ccccc1)C(c1cccc(C3OCCO3)c1)CO2 (stereo not given) | 97 to 99
O=C1C(Cl)=C(C2CCC(c3ccc(Cl)cc3)CC2)C(=O)c2ccccc21 (stereo not given) | 172 to 175
COC(=O)C(Cc1cccc(C2(OC)CCOCC2)c1)c1nc(-c2ccccc2)c(-c2ccc(S(N)(=O)=O)cc2)o1 (stereo not given) | 88.7 to 94.9
CC(CCCn1c(C)nc2c(N)nc3ccccc3c21)=NOCc1ccccc1 | 146 to 148
Cc1cc(C)c2c(c1)C=C(C(=O)O)CC2 | 194 to 195
O=C(O)COC1=C(Cc2ccc3ccccc3c2)C(=O)CCC1 | 170 to 171
CC(C)(C)C(O)c1ccc(CO)cc1 (stereo not given) | 91 to 95
CC(C)C[C@H](NC(=O)c1ccc2c(c1)Nc1ccccc1S2)C(=O)N[C@@H](CC(C)C)C(=O)N[C@@H](CC(C)C)C(=O)N[C@H]1CCOC1O (stereo not given in full) | 174 to 176
CSCCSC1=C(O)CC(C)(C)CC1=O | 57 to 59
CC(C)(C)OC(=O)c1ccc(C(=O)N(Cc2ccccc2)S(=O)(=O)c2ccc(Br)cc2)cc1 | 120 to 122
O=c1[nH]c2c(Cl)ncnc2n1CCN1CCC(Nc2nc3ccccc3n2Cc2ccc(F)cc2)CC1 | 266
Nc1ccc2cccc(N3CCNCC3)c2c1 | 184 to 186
CCC(=O)Nc1cccc(-c2ccc3nnc(C)n3n2)c1 | 265 to 268
CCN(CC)CCn1nc2c3c(c(NCCNCCO)ccc31)Sc1c(OC)ccc(OC)c1-2 | 119 to 123
COc1cc(-c2ccco2)c2oc(-c3ccc(OC)c(F)c3)nc2c1 | 155
Cn1cc(-c2cc3cccnc3[nH]2)c2cc(C(=O)NC(CO)(CO)CO)ccc21 | 205 to 206
Cc1ccc(OCCCN2CCC(Cc3ccc4ccccc4n3)CC2)c2c1NC(=O)C2(C)C | 150 to 151
C#CCN(Cc1cc2c(=O)n(C)c(CN3CCN(c4ccccc4)CC3)nc2cc1Cl)c1ccc(C(=O)OC(C)(C)C)cc1 | > 95
Cc1ccc(S(=O)(=O)OCC2Cc3cccc(C=CC(C)(C)C)c3O2)cc1 (stereo not given) | 85 to 88
Cc1cccc(C(=O)O)c1-c1ccc(C(F)(F)F)cc1 | 202 to 203
Cc1cc(CCCCCOc2c(Cl)cc(C(=O)O)cc2Cl)on1 | 67 to 69

SMILES | melting point [°C]
O=C(Nc1cccc2c(-n3ccnc3)c(Br)cnc12)c1c(-n2ccnc2)cccc1-n1ccnc1 | 175 to 185
COc1cc(C=CC(=O)Nc2cnc3ccccc3c2-c2ccccc2)cc(OC)c1OC(C)=O | 247 to 248
OCCc1c2ccccc2c(Br)c2ccccc12 | 180 to 182
CN(C)C(=O)N[C@H]1CC[C@H](CCN2CCC(c3cccc4c3CCO4)CC2)CC1 | 260
Cc1cc(C(=O)Nc2ccccc2O)cc(C)c1O | 142 to 145
COc1cc(OC)c2c(=O)[nH]c(-c3ccc(OCCNC(C)C)c(-c4ccc(S(C)(=O)=O)cc4C(F)(F)F)n3)nc2c1 | 199 to 201
COc1cc(OCc2ccccn2)ccc1/C=C/c1cc(/C=C/c2cc3ccccc3o2)n[nH]1 | 199 to 201
O=C1CNC(c2ccc([N+](=O)[O-])cc2)=NN1 | 284 to 286
CN1CCN(C(=O)CC2CN=C(c3cc4cccc(N(C)S(=O)(=O)c5cccs5)c4[nH]3)S2)CC1 (stereo not given) | 151 to 153
Clc1ccc(-c2nc(Cc3nnn[nH]3)c(-c3ccccc3)s2)cc1 | 213 to 214
COC(=O)CSc1cccc(Br)n1 | 32 to 34
O=C(NCC(=O)N1[C@@H](c2ccccc2)CC[C@H]1c1ccccc1)Nc1cccc(C(=O)O)c1 | 255
CC(C)CNCc1cccc(OCCCNc2nc(N)nn2C)c1 | 89 to 90
N#CCCNC(=O)c1cccc(-c2cccc(Oc3cc(Cl)ccc3Cl)n2)c1 | 149 to 150
O=S(CBr)c1ccc(Cl)cc1 (stereo not given) | 100
CCCCN(CCCC)c1ccc(C=CC=Cc2ccc(C=CC3=C(C#N)C(=C(C#N)C#N)OC3(C)C)s2)c(OC)c1 | 185 to 187
CC(C)(CO)NC1=NS(=O)(=O)c2sc(Cl)cc2N1 | 224 to 226
Cc1oc(-c2ccccc2)nc1CCOc1ccc(C[C@H](NC(=O)C=Cc2ccco2)C(=O)O)cc1 | 199 to 201
Nc1cc(-c2ccccc2)nc2ccccc12 | 162 to 164
CCN(CC)c1cc(C)nc(-c2ccncc2)n1 | 205 to 208
CCOC(=O)c1cc2cc(N3CCN(C(=O)OC(C)(C)C)CC3)ccc2o1 | 116 to 118
CCCCOCCOc1ccc(-c2ccc3c(c2)C=C(C(=O)Nc2ccc([C@@H](O)c4ccccn4)cc2)CCN3C=O)cc1 | 110 to 112
NC(=O)c1ccc(N2CCN(CCC3CCc4ccccc43)CC2)cc1 (stereo not given) | 204 to 205
CCCCCCCCCCCCSC1C=NNC1=O (stereo not given) | 88.5 to 90
O=[N+]([O-])c1oc2c(CC(CO)CO)cccc2c1-c1ccccc1 | 166 to 168

SMILES | melting point [°C]
COC(=O)c1c(-c2ccccc2)oc2c(CCl)cccc2c1=O | 150
c1ccc(-c2cc3ccccc3o2)nc1 | 86 to 87
Clc1ccc2nc(NC3CCCCC3)n3nc(-c4ccco4)nc3c2c1 | 158 to 160
CCCn1nc2c(N)nc3ccccc3c2c1CC1(O)CCOCC1 | 209 to 211
CNC(=O)N(O)CC#Cc1cccc(C2=N[C@H](c3ccccc3)CO2)c1 | 163 to 165
CCCCc1n[nH]c(C(F)(F)CCC)n1 | 92 to 93
N#CCC(O)(c1ccccc1C(F)(F)F)c1ccccc1C(F)(F)F | 168 to 170
Cn1c2cc(Cl)ccc2c2c(=O)[nH]c(-c3ccccc3)nc21 | > 300
CC(C)C(=O)NCCNC(=O)OC(C)(C)C | 116 to 117
CCSc1nnc(-c2ccccc2)n1Cc1ccc([N+](=O)[O-])cc1 | 108
CC=CC=NNC(=O)c1cccnc1 | 144 to 145
COC(=O)CN1C(=O)C2=C(c3ccc(Cl)cc3C(c3ccccc3Cl)=NC2)C1C (stereo not given) | 221 to 223
COc1ccc2c(c1)C(=O)N(c1ccc3ccn(C)c3c1)C2 | 158 to 161
CC(C)(C)OC(=O)Nc1cc(Cl)c(C#Cc2ccccc2)cc1[N+](=O)[O-] | 166 to 167
Nc1ncccc1OCc1ccc(F)cc1F | 105 to 107
COc1cn(-c2ccc(C3=CCOCC3)cc2F)nc(-c2ccnn2-c2ccccc2)c1=O | 229 to 231
NN(c1ccccc1)c1cc(Cl)nc(Cl)n1 | 114 to 116
O=C(O)CN1C(=O)C(c2ccccc2)c2ccccc21 (stereo not given) | 180 to 181
c1cc2cc(-c3nnn[nH]3)ccc2[nH]1 | 205
N#Cc1cc(N=Nc2cc(Cl)ccc2Cl)ccc1N | 250
COc1ccc(CNC(=O)c2nccnc2N)cc1 | 93 to 95
NC(=O)Cc1ccc(OCC(O)CNCCCCn2cnc3ccccc32)cc1 (stereo not given) | 119 to 123
CC(NC(=O)Nc1ccc(Br)cn1)c1ncccc1F (stereo not given) | 151 to 154
O=C1CCC(N2Cc3c(OCc4ccc(CN5CCN(C(=O)C6CC6)CC5)cc4)cccc3C2=O)C(=O)N1 (stereo not given) | 233 to 235
COC(=O)CCc1ccc(NC(=O)OC(C)(C)C)cc1 | 72 to 73.5
